Columns and labels:
OPR3 = target: T1, OPR3 (Arabidopsis thaliana, UniProt Q9FUP0); test: Reactivity screening of oximes with purified ene-reductase, conversion by GC-FID; assay type: biochemical; conditions: OPR3 100 µg/ml, 10 mM Oxim, 0,5 mM NAD(P)H/H+, Glucose/GDH, Tris-HCl pH 7,5, 30 °C, 24 h
T1 construct: made in house; host or cells: E. coli BL21(DE3)
Description: (§1) Die En-Reduktase ist zwar nicht speziell eingeschränkt, ist aber vorzugsweise aus der OYE-Familie, d.h. der Familie der "Old Yellow Enzymes" ausgewählt, da Vertreter dieser Gruppe von Enzymen allesamt gute Ergebnisse geliefert haben. Noch bevorzugter ist die ER aus den folgenden bereits getesteten Enzymen ausgewählt: • OYE1 von Saccharomyces pastorianus, • OYE2 von Saccharomyces cerevisiae, • OYE3 von Saccharomyces cerevisiae, • 12-Oxophytodienoat-Reduktase 3 (OPR3) von Arabidopsis thaliana, • xenobiotischer Reduktase A (XenA) von Pseudomonas putida II-B und • En-Reduktase von Ferrovum sp. JA12 (FOYE).
(§2) Plasmide, die jeweils ein für eine der En-Reduktasen OYE1, OYE2, OYE3, OPR3, XenA und FOYE kodierendes Gen enthielten, wurden in chemisch kompetente E. coli BL21(DE3)-Zellen transformiert. Die sechs Über-Nacht-Kulturen wurden in LB-Medium, das mit 50 µg/ml Kanamycin (für OYE1-3 und FOYE) oder 100 µg/ml Ampicillin (für OPR3 und XenA) ergänzt worden war, bei 30 °C und 120 U/min kultiviert. Hauptkulturen (1 l LB-Medium, 50 µg/ml Kanamycin oder 100 µg/ml Ampicillin) wurden mit je 3 ml der entsprechenden Über-Nacht-Kultur inokuliert und bei 37 °C, 120 U/min geschüttelt, bis die OD600 0,6 bis 0,8 erreichte. Die Proteinproduktion wurde durch Zusatz von Isopropyl-β-D-thiogalactopyranosid (IPTG) (0,2 mM für OYE1-3 und XenA, 1 mM für OPR3 und 0,05 mM für FOYE) induziert und bei 20 °C über Nacht (für OYE1-3 und FOYE) oder bei 37 °C 4 h lang (für XenA und OPR3) geschüttelt. Die Zellen wurden durch Zentrifugation (5000 U/min, 4 °C, 20 min) geerntet, das Pellet wurde mit 100 mM Tris-HCI-Puffer pH 7,5 (25 ml) gewaschen und bei -20 °C gelagert.
(§3) Als Modellreaktion für die Feststellung der Enzymaktivität wurde im Handel erhältlicher 2-Oximinoacetessigsäureethylester (1a) mit den sechs in den Synthesebeispielen 1 bis 6 hergestellten En-Reduktasen (ER) in analytischem Maßstab umgesetzt. Dazu wurden in ein 2-ml-Eppendorf-Röhrchen 100 µg/ml der jeweiligen gereinigten En-Reduktase, 0,5 mM NAD(P)H/H^+, 50 mM Glucose und 1 mg/ml GDH in 100 mM Tris-HCl-Puffer, pH 7,5, gelöst. Die Reaktionen wurden durch Zugabe von 10 mM Oxim (1a) (aus einer 200 mM Stammlösung in DMSO) auf ein Endvolumen von 500 µl gestartet und 24 h lang bei 30 °C, 120 U/min geschüttelt. Danach wurden die Reaktionsgemische jeweils mit 1 ml Chloroform extrahiert, die organische Phase wurde über MgSO4 getrocknet und mittels GC-FID analysiert und der Umsatz anhand der Peakflächenprozentsätze ermittelt. Wie aus nachstehender Tabelle 1 hervorgeht, wurde nach 24 h in allen sechs Fällen praktisch vollständiger Umsatz festgestellt. Tabelle 1: Anfängliches Reaktivitätsscreening mit Modelloxim (1a)
(§4) Zur Ermittlung, welche anderen Derivate der 2-Oximinoacetessigsäure mittels enzymatischer Katalyse durch die sechs in den Synthesebeispielen 1 bis 6 hergestellten En-Reduktasen (1) zu Pyrazindicarbonsäure-Derivaten (2) umsetzbar sein würden, wurden die für die Beispiele 1 bis 6 beschriebene Vorgangsweise unter Verwendung der in den Synthesebeispielen 7 bis 13 hergestellten Oxime (1b) bis (1h) anstelle von (1a) wiederholt. Überraschenderweise wurde in sämtlichen Fällen nach 24 h praktisch vollständiger Umsatz beobachtet, wie aus nachstehender Tabelle 2 hervorgeht. Tabelle 2: Reaktivitätsscreening mit den Oximen (1b) bis (1h)

OYE1 = target: T2, OYE1 (Saccharomyces pastorianus, UniProt Q02899); test: as above; assay type: biochemical; conditions: OYE1 100 µg/ml, 10 mM Oxim, 0,5 mM NAD(P)H/H+, Glucose/GDH, Tris-HCl pH 7,5, 30 °C, 24 h
T2 construct: made in house; host or cells: E. coli BL21(DE3)
Description: as §1, §2, §3, §4

OYE2 = target: T3, OYE2 (Saccharomyces cerevisiae, UniProt Q03558); test: as above; assay type: biochemical; conditions: OYE2 100 µg/ml, 10 mM Oxim, 0,5 mM NAD(P)H/H+, Glucose/GDH, Tris-HCl pH 7,5, 30 °C, 24 h
T3 construct: made in house; host or cells: E. coli BL21(DE3)
Description: as §1, §2, §3, §4

OYE3 = target: T4, OYE3 (Saccharomyces cerevisiae, UniProt P41816); test: as above; assay type: biochemical; conditions: OYE3 100 µg/ml, 10 mM Oxim, 0,5 mM NAD(P)H/H+, Glucose/GDH, Tris-HCl pH 7,5, 30 °C, 24 h
T4 construct: made in house; host or cells: E. coli BL21(DE3)
Description: as §1, §2, §3, §4

XenA = test: as above; assay type: biochemical, Pseudomonas putida II-B; conditions: XenA 100 µg/ml, 10 mM Oxim, 0,5 mM NAD(P)H/H+, Glucose/GDH, Tris-HCl pH 7,5, 30 °C, 24 h
Description: as §1, §2, §3, §4

FOYE [1] = test: as above; assay type: biochemical, Ferrovum sp. JA12; conditions: FOYE 100 µg/ml, 10 mM Oxim, 0,5 mM NAD(P)H/H+, Glucose/GDH, Tris-HCl pH 7,5, 30 °C, 24 h
Description: as §1, §2, §3, §4

FOYE [2] = test: Photometric activity measurement by consumption of coenzyme NAD(P)H/H+ with diketone oximes; assay type: biochemical, Ferrovum sp. JA12
Description: Zur Untersuchung, ob die enzymatische Katalyse auch mit 2-Oximino-1,3-diketonen anstelle der 2-Oximinoacetessigsäure-Derivate als Substrate abläuft, d.h. ob das Carbonsäure-Ende des Substratmoleküls für die Reaktion erforderlich ist, wurden die drei nachstehend dargestellten Diketon-Oxime (3a), (3b) und (3c) [drawing 12] auf analoge Weise zu den obigen Synthesebeispielen 7 bis 13 aus den entsprechenden Diketon-Ausgangsprodukten (Acetylaceton, ω-Acetylacetophenon und 1-Isopropylacetylaceton) hergestellt und auf analoge Weise zu den obigen Beispielen 7 und 8 mit FOYE als En-Reduktase umgesetzt.
Während der Reaktionen wurden photometrische Aktivitätsmessungen durchgeführt, bei denen die Enzymaktivität anhand des Verbrauchs des Coenzyms NAD(P)H/H^+ bestimmt wurde. Die Ergebnisse sind in nachstehender Tabelle 3 angeführt. Tabelle 3: Reaktivitätsscreening mit den Diketon-Oximen (3a) bis (3c)

T4 sequence (P41816 whole entry): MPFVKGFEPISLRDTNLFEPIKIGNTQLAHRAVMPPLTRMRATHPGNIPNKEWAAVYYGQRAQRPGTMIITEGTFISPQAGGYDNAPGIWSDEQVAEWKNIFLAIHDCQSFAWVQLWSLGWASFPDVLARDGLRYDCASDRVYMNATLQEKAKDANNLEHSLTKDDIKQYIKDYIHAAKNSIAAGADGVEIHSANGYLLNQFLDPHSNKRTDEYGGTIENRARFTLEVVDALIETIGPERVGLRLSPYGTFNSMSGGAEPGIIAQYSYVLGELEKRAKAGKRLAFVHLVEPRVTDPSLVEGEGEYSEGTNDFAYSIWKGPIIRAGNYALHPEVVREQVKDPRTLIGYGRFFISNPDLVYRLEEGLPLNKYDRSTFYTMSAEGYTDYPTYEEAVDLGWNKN
T1 sequence (Q9FUP0 whole entry): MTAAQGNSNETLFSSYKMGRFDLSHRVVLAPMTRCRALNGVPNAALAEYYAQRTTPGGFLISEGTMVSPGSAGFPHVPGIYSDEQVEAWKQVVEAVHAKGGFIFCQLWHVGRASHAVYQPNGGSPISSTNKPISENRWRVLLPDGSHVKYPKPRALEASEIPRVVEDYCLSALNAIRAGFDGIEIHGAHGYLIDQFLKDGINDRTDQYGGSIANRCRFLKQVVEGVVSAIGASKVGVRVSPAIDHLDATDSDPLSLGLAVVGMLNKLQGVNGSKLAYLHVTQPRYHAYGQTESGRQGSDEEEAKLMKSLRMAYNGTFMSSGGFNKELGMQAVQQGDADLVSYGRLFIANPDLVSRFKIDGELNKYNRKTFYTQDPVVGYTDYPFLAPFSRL
T3 sequence (Q03558 whole entry): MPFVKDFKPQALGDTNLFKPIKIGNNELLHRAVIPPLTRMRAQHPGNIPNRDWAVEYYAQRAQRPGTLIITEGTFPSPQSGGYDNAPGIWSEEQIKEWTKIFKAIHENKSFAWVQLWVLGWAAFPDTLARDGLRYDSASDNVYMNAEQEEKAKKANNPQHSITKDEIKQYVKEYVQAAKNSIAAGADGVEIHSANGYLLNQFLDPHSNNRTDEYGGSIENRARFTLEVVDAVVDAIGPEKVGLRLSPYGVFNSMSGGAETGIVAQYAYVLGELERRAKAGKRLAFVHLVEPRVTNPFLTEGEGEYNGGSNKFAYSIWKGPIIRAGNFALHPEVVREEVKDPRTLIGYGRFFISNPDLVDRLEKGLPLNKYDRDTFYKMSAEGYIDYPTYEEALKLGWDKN
T2 sequence (Q02899 whole entry): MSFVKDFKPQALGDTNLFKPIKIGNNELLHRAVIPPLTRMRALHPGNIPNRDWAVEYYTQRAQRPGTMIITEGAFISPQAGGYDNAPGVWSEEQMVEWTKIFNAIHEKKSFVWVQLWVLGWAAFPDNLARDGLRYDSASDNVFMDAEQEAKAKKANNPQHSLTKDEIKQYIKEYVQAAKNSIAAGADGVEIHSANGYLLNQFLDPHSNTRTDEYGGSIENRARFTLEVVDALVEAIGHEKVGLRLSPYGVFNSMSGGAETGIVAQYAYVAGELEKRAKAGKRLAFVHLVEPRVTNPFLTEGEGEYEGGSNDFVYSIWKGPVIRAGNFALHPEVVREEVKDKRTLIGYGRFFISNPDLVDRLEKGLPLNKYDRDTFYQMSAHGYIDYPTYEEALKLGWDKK

Compound | Umsatz (OPR3) [%] | Umsatz (OYE1) [%] | Umsatz (OYE2) [%] | Umsatz (OYE3) [%] | Umsatz (XenA) [%] | Umsatz (FOYE [1]) [%] | Aktivität (FOYE [2]) [U/mg]
CCOC(=O)C(=NO)C(C)=O [(1a), 2-Oximinoacetessigsäureethylester, reference compound] | > 99 | > 99 | > 99 | > 99 | > 99 | > 99 | –
CC(=O)C(=NO)C(=O)Nc1ccccc1 [(1b), 2-Oximinoacetessigsäure-N-phenylamid] | > 99 | > 99 | > 99 | > 99 | > 99 | > 99 | –
C=CCOC(=O)C(=NO)C(C)=O [(1c), 2-Oximinoacetessigsäureallylester] | > 99 | > 99 | > 99 | > 99 | > 99 | > 99 | –
CCCCOC(=O)C(=NO)C(C)=O [(1d), 2-Oximinoacetessigsäurebutylester] | > 99 | > 99 | > 99 | > 99 | > 99 | > 99 | –
CC(=O)C(=NO)C(=O)OCc1ccccc1 [(1e), 2-Oximinoacetessigsäurebenzylester] | > 99 | > 99 | > 99 | > 99 | > 99 | > 99 | –
CCCCCCCOC(=O)C(=NO)C(C)=O [(1f), 2-Oximinoacetessigsäureheptylester] | > 99 | > 99 | > 99 | > 99 | > 99 | > 99 | –
COCCOC(=O)C(=NO)C(C)=O [(1g), 2-Oximinoacetessigsäure-2-methoxyethylester] | > 99 | > 99 | > 99 | > 99 | > 99 | > 99 | –
CCOC(=O)C(=NO)C(=O)CC [(1h), 4-Methyl-2-oximinoacetessigsäureethylester] | > 99 | > 99 | > 99 | > 99 | > 99 | > 99 | –
CC(=O)C(=NO)C(C)=O [Oxim 3a, 3-Oximinoacetylaceton] | – | – | – | – | – | – | 6
CC(=O)C(=NO)C(=O)c1ccccc1 [Oxim 3b, α-Acetyl-α-oximinoacetophenon] | – | – | – | – | – | – | 18
CC(=O)C(=NO)C(=O)CC(C)C [Oxim 3c, 1-Isopropyl-3-oximinoacetylaceton] | – | – | – | – | – | – | 23

From patent EP3569594A1, “METHOD FOR THE PREPARATION OF SUBSTITUTED PYRAZINES” (Universität Graz, priority 2018, dated 2019)
